# Patent publication US20100240537A1, “Substituted 6-(alkylbenzylamino)purine derivatives for use as cytokinin receptor antagonists and preparations containing these derivatives” (priority 2007, published 2010)
# Key:
# Format in all cases: cell-based
# AHK3 = target: T1, AHK3 (Arabidopsis thaliana, UniProt Q9C5U1); test: Activation of cytokinin receptor AHK3 in E. coli KMI001 (β-galactosidase reporter); conditions: E. coli KMI001 pSTV28-AHK3, 28 h incubation, n.i. means without interaction
# T1 construct: expressed in transfected cells; host or cells: Escherichia coli KMI001, plasmid pSTV28-AHK3
# T1 sequence (Q9C5U1 1-1036): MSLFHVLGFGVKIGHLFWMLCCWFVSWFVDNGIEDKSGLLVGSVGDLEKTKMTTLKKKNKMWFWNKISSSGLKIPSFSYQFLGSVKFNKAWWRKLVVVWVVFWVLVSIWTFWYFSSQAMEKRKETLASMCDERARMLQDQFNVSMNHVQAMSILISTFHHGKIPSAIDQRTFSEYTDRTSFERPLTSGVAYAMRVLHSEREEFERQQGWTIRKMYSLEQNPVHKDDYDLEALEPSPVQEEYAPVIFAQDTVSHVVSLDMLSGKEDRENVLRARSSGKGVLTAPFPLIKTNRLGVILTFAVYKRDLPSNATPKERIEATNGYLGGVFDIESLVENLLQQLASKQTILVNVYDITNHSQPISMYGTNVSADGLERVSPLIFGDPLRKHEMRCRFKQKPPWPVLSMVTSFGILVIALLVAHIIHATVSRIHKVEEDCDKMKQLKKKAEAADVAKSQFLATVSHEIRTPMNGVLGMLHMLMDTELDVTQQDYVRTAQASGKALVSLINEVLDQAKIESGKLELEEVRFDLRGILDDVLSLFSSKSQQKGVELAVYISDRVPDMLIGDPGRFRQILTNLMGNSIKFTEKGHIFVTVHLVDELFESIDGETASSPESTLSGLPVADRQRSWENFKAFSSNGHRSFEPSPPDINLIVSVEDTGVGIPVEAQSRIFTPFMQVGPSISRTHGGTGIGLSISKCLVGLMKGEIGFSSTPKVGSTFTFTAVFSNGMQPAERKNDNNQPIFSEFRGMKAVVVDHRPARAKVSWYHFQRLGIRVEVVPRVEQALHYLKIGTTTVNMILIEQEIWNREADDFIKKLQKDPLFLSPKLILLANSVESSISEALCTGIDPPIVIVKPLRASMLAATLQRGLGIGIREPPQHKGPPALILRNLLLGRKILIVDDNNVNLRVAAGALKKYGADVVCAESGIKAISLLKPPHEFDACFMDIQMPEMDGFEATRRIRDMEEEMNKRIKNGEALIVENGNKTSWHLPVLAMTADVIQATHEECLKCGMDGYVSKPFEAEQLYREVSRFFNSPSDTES
# Protocol: (§1) Escherichia coli strains KMI001 harbouring the plasmid pIN-III-AHK4 or pSTV28-AHK3 were grown overnight at 25° C. in M9 media enriched with 0.1% casamino acids to OD600˜1. The preculture was diluted 1:600 in 1 ml M9 medium containing 0.1% casamino acids and 1 μl stock solution of either the tested compound (10^−7 M−5×10^−5 M) or solvent control (DMSO, ethanol, methanol) were added. The cultures were further grown at 25° C. in microtiter plate, 200 μl per well. […] The cultures were centrifuged and 50 μl aliquots of the supernatant were transferred to microtiter plate containing 2 μl 50 mM 4-methyl umbelliferyl galactoside which was subsequently incubated for 1 h at 37° C. The reaction was stopped by adding 100 μl 0.2 M Na2CO3. Fluorescence was measured using a Fluoroscan Ascent (Labsystems, Finland) at the excitation and emission wavelengths of 365 and 460 nm, respectively. The OD600 of remaining culture was determined and β-galactosidase activity was calculated as nmol 4-methylumbelliferone×OD600^−1×h^−1.
# (§2) The EC50 value, the compound concentration activating the receptor to 50%, was calculated from the obtained dose response curves. The compound functioning as cytokinin antagonists should not activate cytokinin signalling pathway. The values shown in Table 2 are means of three replicates and the entire test was repeated at least twice.
# CRE1/AHK4 = target: T2, CRE1/AHK4 (Arabidopsis thaliana, UniProt Q9C5U0); test: Activation of cytokinin receptor CRE1/AHK4 in E. coli KMI001 (β-galactosidase reporter); conditions: E. coli KMI001 pIN-III-AHK4, 17 h incubation; n.i. means without interaction
# T2 construct: expressed in transfected cells; host or cells: Escherichia coli KMI001, plasmid pIN-III-AHK4
# Protocol: as §1, §2
# [1] = test system: cytokinin-dependent tobacco callus Nicotiana tabacum L. cv. Wisconsin 38; test: Cytokinin-dependent tobacco callus bioassay; conditions: for activity (%) [10^−6 mol · l^−1 BA = 100%]: at concentration with highest activity, n.a. means inactive; for concentration with highest activity: callus fresh weight after four weeks
# Protocol: Stimulatory effect of newly prepared derivatives was tested using cytokinin-dependent tobacco callus. The cytokinin-dependent tobacco callus Nicotiana tabacum L. cv. Wisconsin 38 was maintained at 25° C. in darkness on modified MS medium, containing per 1 liter: 4 μmol of nicotinic acid, 2.4 μmol of pyridoxine hydrochloride, 1.2 μmol of thiamine, 26.6 μmol of glycine, 1.37 μmol of glutamine, 1.8 μmol of myo-inositol, 30 g of sucrose, 8 g of agar, 5.37 μmol of NAA and 0.5 μmol of the compound tested. Subcultivation was carried out every three weeks. Fourteen days before the bioassay, the callus tissue was transferred to the media without 6-benzylaminopurine. The biological activity was determined from the increase of the fresh callus weight after four weeks of cultivation. Five replicates were prepared for each concentration of the compound tested and the entire test was repeated twice. […] The compounds to be tested were dissolved in dimethylsulfoxide (DMSO) and the solution brought up to 10^−3M with distilled water. This stock solution was further diluted with the respective media used for the biotest to a concentration ranging from 10^−8M to 10^−4M.
# From the obtained data, the concentration with the highest activity was selected for each compound tested. Relative activity of the compound at this concentration was calculated (Table 3). The activity obtained for 10^−6 M of the control substance 6-benzylaminopurine was postulated as 100% biological activity. […]
# T2 sequence (Q9C5U0 whole entry): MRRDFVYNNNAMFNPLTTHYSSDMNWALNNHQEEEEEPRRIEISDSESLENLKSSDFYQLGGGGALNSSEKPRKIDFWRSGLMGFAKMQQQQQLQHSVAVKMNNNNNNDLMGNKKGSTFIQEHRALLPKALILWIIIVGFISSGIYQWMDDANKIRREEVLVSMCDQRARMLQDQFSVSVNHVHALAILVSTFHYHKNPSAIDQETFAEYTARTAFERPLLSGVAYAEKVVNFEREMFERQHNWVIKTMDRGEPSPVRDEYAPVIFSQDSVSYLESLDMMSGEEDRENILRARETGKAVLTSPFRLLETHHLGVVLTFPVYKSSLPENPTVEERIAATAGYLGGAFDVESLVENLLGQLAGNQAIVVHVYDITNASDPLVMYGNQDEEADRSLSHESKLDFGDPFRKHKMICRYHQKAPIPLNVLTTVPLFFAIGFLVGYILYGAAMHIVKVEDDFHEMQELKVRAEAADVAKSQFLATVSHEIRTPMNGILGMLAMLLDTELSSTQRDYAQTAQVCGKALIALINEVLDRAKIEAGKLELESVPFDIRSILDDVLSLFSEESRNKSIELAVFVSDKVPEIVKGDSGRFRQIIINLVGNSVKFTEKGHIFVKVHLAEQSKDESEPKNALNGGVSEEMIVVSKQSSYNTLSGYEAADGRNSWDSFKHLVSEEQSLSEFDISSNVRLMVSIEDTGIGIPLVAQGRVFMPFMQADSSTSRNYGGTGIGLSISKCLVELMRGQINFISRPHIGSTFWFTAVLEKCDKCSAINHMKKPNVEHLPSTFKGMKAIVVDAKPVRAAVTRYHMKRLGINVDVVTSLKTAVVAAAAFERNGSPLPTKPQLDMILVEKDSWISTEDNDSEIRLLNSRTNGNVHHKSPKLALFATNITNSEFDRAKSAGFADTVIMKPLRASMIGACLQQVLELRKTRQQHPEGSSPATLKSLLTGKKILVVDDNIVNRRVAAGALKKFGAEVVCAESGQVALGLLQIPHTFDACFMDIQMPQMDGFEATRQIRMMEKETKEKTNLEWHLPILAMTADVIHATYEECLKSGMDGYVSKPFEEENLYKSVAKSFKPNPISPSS
Molecule,EC50 AHK3 (activation of cytokinin receptor) (AHK3),EC50 CRE1/AHK4 (activation of cytokinin receptor) (CRE1/AHK4),activity (%) [10^−6 mol · l^−1 BA = 100%] [1],concentration with highest activity [1],EC50 (AHK3; read-out: EC50 AHK3 (activation of cytokinin receptor)) [µM]
6-(2-thio-5-methylbenzylamino)purine [Compound 19],n.i,n.i.,1.3 (±1) %,10^−4 mol.l^−1,
"Cc1cccc(CNc2ncnc3nc[nH]c23)c1N [Compound 1, 6-(2-amino-3-methylbenzylamino)purine]",n.i,n.i.,,,
"Cc1ccc(CNc2ncnc3nc[nH]c23)c(N)c1 [Compound 2, 6-(2-amino-4-methylbenzylamino)purine]",n.i,n.i.,,,
"Cc1ccc(N)c(CNc2ncnc3nc[nH]c23)c1 [Compound 3, 6-(2-amino-5-methylbenzylamino)purine]",n.i,n.i.,,,
"CCc1cccc(CNc2ncnc3nc[nH]c23)c1N [Compound 4, 6-(2-amino-3-ethylbenzylamino)purine]",n.i,n.i.,,,
"CCc1ccc(N)c(CNc2ncnc3nc[nH]c23)c1 [Compound 5, 6-(2-amino-5-ethylbenzylamino)purine]",n.i,n.i.,,,
"Cc1ccc(CNc2ncnc3nc[nH]c23)c(O)c1 [Compound 9, 6-(2-hydroxy-4-methylbenzylamino)purine]",n.i,n.i.,,,
"Cc1cccc(O)c1CNc1ncnc2nc[nH]c12 [Compound 11, 6-(2-hydroxy-6-methylbenzylamino)purine]",n.i,n.i.,23 (±5) %,10^−4 mol.l^−1,
"CCc1cccc(CNc2ncnc3nc[nH]c23)c1O [Compound 12, 6-(2-hydroxy-3-ethylbenzylamino)purine]",n.i,n.i.,,,
"CCc1ccc(O)c(CNc2ncnc3nc[nH]c23)c1 [Compound 13, 6-(2-hydroxy-5-ethylbenzylamino)purine]",n.i,n.i.,,,
"Cc1cccc(CNc2ncnc3nc[nH]c23)c1[N+](=O)[O-] [Compound 15, 6-(2-nitro-3-methylbenzylamino)purine]",,n.i.,,,> 100
"Cc1ccc([N+](=O)[O-])c(CNc2ncnc3nc[nH]c23)c1 [Compound 16, 6-(2-nitro-5-methylbenzylamino)purine]",n.i,n.i.,,,
"CCc1cccc(CNc2ncnc3nc[nH]c23)c1[N+](=O)[O-] [Compound 17, 6-(2-nitro-3-ethylbenzylamino)purine]",n.i,n.i.,,,
"Cc1cc(C)c(N)c(CNc2ncnc3nc[nH]c23)c1 [Compound 21, 6-(2-amino-3,5-dimethylbenzylamino)purine]",n.i,n.i.,,,
"Cc1cc(C)c(O)c(CNc2ncnc3nc[nH]c23)c1 [Compound 23, 6-(2-hydroxy-3,5-dimethylbenzylamino)purine]",n.i,n.i.,,,
"Cc1ccc(CNc2ncnc3nc[nH]c23)c(O)c1C [Compound 24, 6-(2-hydroxy-3,4-dimethylbenzylamino)purine]",n.i,n.i.,,,
